Molecules are shown by their SMILES.

Series [1] is described as follows: Determination of stability in plasma in vitro, human plasma (LC-MS/MS). It counts as in vitro ADME. Particulars: same experimental conditions (human and mouse plasma). How it is done: Pharmacological Example 3: Determination of Stability in Plasma in Vitro
The stock solution was diluted with acetonitrile to obtain a working solution at a concentration of 100 µ M. The solution should be freshly prepared prior to use and maintained at room temperature during application.
990 µ L of human and mouse plasma (N = 2) were separately pipetted and pre-incubated at 37 °C for 5 min. Then, 10 µ L of the test compound working solution was added and vortexed thoroughly (the final concentration of the test compound was 1 µ M). Immediately, 50 µ L of the plasma sample was added to 150 µ L of ice-cold precipitation agent containing the internal standard and vortexed thoroughly as the 0-time sample. The remaining plasma sample was continuously incubated at 37 °C, and 50 µ L of the plasma sample was aspirated and added to 150 µ L of ice-cold precipitation agent containing the internal standard at preset sampling time points, followed by thorough vortexing. The collected samples were stored in a freezer at -60 to -90 °C until analysis.
The concentration of the test compound was determined by LC-MS/MS, and its degradation was monitored. (semi-quantitative determination was conducted by comparing the peak area of the analyte to that of the internal standard).

The subject of the next series is psoriasis model mice. Put plainly: Psoriasis experiment (imiquimod model): skin lesion (PASI) score. The class given is in vivo. The following applies: compared with the model group.
Series [2] deals with dry eye syndrome model New Zealand rabbits. In words: Dry eye syndrome experiment (benzalkonium chloride model): corneal fluorescein sodium staining. It counts as in vivo, male New Zealand White rabbits. The following applies: compared with the model group.
Series [3] has as its system inflammatory cytokines IL-6 and IL-12. Put plainly: Anti-asthma pharmacodynamic experiment: inflammatory cytokines in bronchoalveolar lavage fluid (ELISA). The class given is in vivo, female BALB/c mice. Particulars: compared with the model group. Background: In an ELISA, binding on a coated surface is turned into a signal by an enzyme label.
Protocol: (§1) Pharmacological Example 4: Pharmacodynamic Experiment on Anti-Asthma
(§2) The suspensions were stored at room temperature protected from light until use.
(§3) Positive control drug: Budesonide Suspension for Inhalation (specification: 2 mL: 1 mg; AstraZeneca Inc.; Lot No. : 327392) was diluted with injection-grade sodium chloride solution to 0.3 mg/ml as the positive control drug, and stored at room temperature protected from light until use.
(§4) Sixty female BALB/c mice underwent a one-week adaptive feeding period. Ten mice were randomly selected as the blank control group, while 50 mice were selected to establish asthma models.
(§5) From days 21 to 23 after sensitization, the mice in the model group and drug administration group were exposed to a 30-minute aerosol challenge with 5% OVA, while the mice in the blank control group were exposed to normal saline aerosol for the same duration.
At the end of airway hyperresponsiveness testing in mice, the mice were euthanized by cervical dislocation and fixed on a dissection tray. The abdomens and thoracic cavities of the mice were opened, and the skin and excess tissues of the neck were excised to expose the trachea of the mice. A small incision was made transversely on the trachea with a small scissors. A pre-treated 1 mL syringe needle was inserted and fastened with surgical thread. A 1 mL syringe was used to slowly inject 0.5 mL of pre-chilled phosphate-buffered saline (PBS) into the lungs of the mice, followed by slow aspiration. Each mouse was lavaged once, and a total of approximately 0.4 ml of lavage fluid was collected. The bronchoalveolar lavage fluid was centrifuged at 3000 rpm for 5 min. After centrifugation, the supernatant was aliquoted, and the levels of inflammatory cytokines IL-6 and IL-12 in the bronchoalveolar lavage fluid were determined using ELISA kits.
The test system of a further series is asthma model mice. In words: Anti-asthma pharmacodynamic experiment: airway hyperresponsiveness (Penh) after methacholine challenge. The following applies: compared with the model group. It counts as in vivo, female BALB/c mice.
In series [4] the test system is inflammatory cytokines (TNF-α). Put plainly: Anti-uveitis pharmacodynamic experiment (LPS model): inflammatory cytokines in aqueous humor (ELISA). It counts as in vivo, male SD rats. The following applies: values not given. The protocol: Pharmacological Example 5. Pharmacodynamic Experiment on Anti-Uveitis
Test samples: Compounds 23 and 26 were prepared as 5 mg/5 mL ophthalmic suspensions with reference to the formulation of Fluorometholone Eye Drops, and stored at room temperature protected from light until use.
Positive control drug: Fluorometholone Eye Drops (specification: 5 mL/5 mg; Santen Pharmaceutical (CHINA) Co., Ltd.; Lot No. : J20180068) was used as the positive control drug and stored at room temperature protected from light until use.
Fifty male SD rats underwent a one-week adaptive feeding period. The animals were randomly divided into 5 groups: Group 1 served as the blank control group, and Groups 2 to 5 were the model group, fluorometholone group, compound 23 group, and compound 26 group, respectively. Groups 2 to 5 were used to establish rat uveitis models by single subcutaneous injection of 1 mg/kg LPS (Salmonella; Sigma; Lot No. 0000164114) into the plantar tissue of the hindpaw. Salmonella endotoxin was dissolved in normal saline to prepare an injection solution at a concentration of 2 mg/mL, which was injected subcutaneously at 1 mg/kg into the plantar tissue of one paw of the rats. Group 1 was injected with an equal volume of normal saline.
After modeling, 40 µL of normal saline was administered to the eyes (bilateral) of the rats in the blank control group and model group, and 40 µL of the corresponding drugs were administered to the eyes (bilateral) of the […] in the compound 23 group, compound 26 group, and positive drug fluorometholone group, 3 times a day for 2 days. Table 8. Animal grouping and drug administration dosages
Thirty hours after modeling, aqueous humor was collected from both eyes of rats, and partial eyeball tissues of rats were collected. The level of the inflammatory cytokines (TNF-α) was detected using a rat ELISA assay kit.
Statistical analysis was performed using SPSS software. Measurement data were expressed as mean ± standard deviation. One-way ANOVA was used for intergroup comparisons. For data with homogeneous variance, LSD test was used; for data with heterogeneous variance, Dunnett-t test was used. A value of P < 0.05 was considered statistically significant.

The target of series [5] is T1, mineralocorticoid receptor (MR) (Homo sapiens, UniProt P08235).
T1 sequence (P08235 726-984): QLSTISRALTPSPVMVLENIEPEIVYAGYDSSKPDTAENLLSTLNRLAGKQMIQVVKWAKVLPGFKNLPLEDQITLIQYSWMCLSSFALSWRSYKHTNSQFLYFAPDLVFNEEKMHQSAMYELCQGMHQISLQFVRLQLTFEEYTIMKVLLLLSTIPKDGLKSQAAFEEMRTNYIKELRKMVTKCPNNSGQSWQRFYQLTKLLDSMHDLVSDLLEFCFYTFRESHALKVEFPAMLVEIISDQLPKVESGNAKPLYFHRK
Put plainly: Assay for agonist activity on mineralocorticoid receptor (luciferase reporter, HEK293 cells transfected with pBIND-MR plasmid). The class given is cell-based. Summed up:
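HEK293 cells transiently transfected with pBIND-MR or pBIND-PR, seeded in phenol red-free DMEM with 5% charcoal-stripped serum. Compounds tested as 12-point 4-fold dilutions from 50 µM in duplicate, 0.1% DMSO blank. Luciferase luminescence read, EC50 by nonlinear fit.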

The test system of the next series is IL-17. In words: Psoriasis experiment (imiquimod model): inflammatory cytokine in serum (ELISA). Particulars: compared with the model group. The class given is in vivo, mice.

Protocol for asthma model mice: as §1, §2, §3, §4, §5
Airway responsiveness was measured in all groups of mice after the last challenge. The mice were placed into a plethysmography chamber, and baseline Penh values were recorded. Subsequently, the mice were challenged with aerosolized methacholine at concentrations from low to high of 0, 6.25, and 12.5 mg/mL, with an aerosol volume of 100 µ L each time for 60 s. […] Penh values were then recorded for 3 min and averaged to compare the airway responsiveness of each group of mice.
Protocol for psoriasis model mice: Positive control drug: Fluticasone Propionate Cream (specification: 0.05% × 15 g, Zhejiang Xianju Pharmaceutical Co. Ltd., Lot No. 211106), stored at room temperature protected from light until use.
Adult mice were selected, and the skin of 2 cm × 3 cm on the back of mice was locally depilated. The mice in the model group and drug administration group were applied with 62.5 mg of 5% imiquimod cream on their back for modeling, while the mice in the blank control group were applied with medical petroleum jelly on their back daily. The above procedures were performed once a day for 7 consecutive days.
The mice in the drug administration group were applied with the corresponding drugs on their backs daily at a dose of 0.2 g per mouse, while the blank control group and the model group were only applied with 0.2 g of the test sample drug matrix. One hour after drug administration, the drugs were wiped off with sterile cotton swabs, followed by the application of imiquimod. The above procedures were performed once a day for 7 consecutive days.
Referring to the clinical Psoriasis Area and Severity Index (PASI) scoring criteria, erythema, scaling, and thickness at the skin lesion sites were evaluated on a 0-4 scale on day 8 of modeling, and the total score was obtained by summing the three items.
• (1) Erythema: a score of 0 points indicates no erythema, a score of 1 point indicates erythema appearing light red, a score of 2 points indicates erythema appearing red, a score of 3 points indicates erythema appearing dark red, and a score of 4 points indicates erythema appearing extremely deep red; • (2) Scaling: a score of 0 points indicates no scaling on the surface, a score of 1 point indicates partial skin lesions covered with scaling, a score of 2 points indicates most skin lesions covered with scaling, a score of 3 points indicates almost all skin lesions covered with scaling in layers, and a score of 4 points indicates all skin lesions covered with scaling; • (3) Thickness: a score of 0 points indicates skin lesions flush with normal skin, a score of 1 point indicates skin lesions slightly elevated above normal skin surface, a score of 2 points indicates moderate elevation of skin lesions, a score of 3 points indicates thickened skin lesions with obvious elevation, and a score of 4 points indicates highly thickened skin lesions with prominent elevation.
Statistical analysis was performed using SPSS software, and the results were expressed as mean ± standard deviation. One-way ANOVA was used for intergroup comparisons. For data with homogeneous variance, the LSD test was used; for data with heterogeneous variance, the Dunnett-t test was used. A value of P < 0.05 was considered statistically significant.

Take `C[C@]12C=CC(=O)C=C1CC[C@H]1[C@@H]3C[C@H]4OC(c5ccc(COC6CCOC6=O)cc5)O[C@@]4(C(=O)CO)[C@@]3(C)C[C@H](O)[C@@]12F` (stereo partly drawn) [Compound 16, (6aS,6bR,7S,8aS,8bS,11aR,12aS,12bS)-6b-Fluoro-7-hydroxy-8b-(2-hydroxyacetyl)-6a,8a-dimethyl-10-(4-(((2-oxotetrahydrofuran-3-yl)oxy)methyl)phenyl)-1,2,6a,6b,7,8,8a,8b,11a,12,12a,12b-do decahydro-4H-naphtho[2',1':4,5]indeno[1,2-d][1,3]dioxol-4-one]: the plasma instability result in series [1] is “exhibited the characteristic of plasma instability”. Besides, in the series on psoriasis model mice, the PASI scores result is on record as “significantly decreased PASI scores on day 7”. Further, the “inflammatory response on the ocular surface / ocular symptoms” value in series [2] is recorded as “significantly alleviated the ocular symptoms in dry eye syndrome model New Zealand rabbits”. Also, in series [3], the “Effects on inflammatory cytokines in bronchoalveolar lavage fluid of mice” value was “pharmacological effects similar to those of compound 23”. For the same compound, in the series on asthma model mice, the “Effects on airway hyperresponsiveness (Penh values) in mice” value is recorded as “significantly decreased the Penh values in mice”. Moreover, the “inflammatory cytokines in aqueous humor” value in series [4] was “suppressed inflammatory cytokines in aqueous humor”. For the same compound, in series [5], the 50% effective concentration (EC50) is greater than 50 µM. In addition, the “Target selectivity MR/GR” value in series [5] (ratio of EC50 values) is > 1.2×10^5. Also, in the series with IL-17, the “level of IL-17 / inflammatory cytokines in psoriasis model mice” value is listed as “significantly inhibited inflammatory cytokines in the skin of psoriasis model mice”.

For `C[C@]12C=CC(=O)C=C1CC[C@H]1[C@@H]3C[C@H]4OC(c5ccc(CSC6CCOC6=O)nc5)O[C@@]4(C(=O)CO)[C@@]3(C)C[C@H](O)[C@@]12Cl` (stereo partly drawn) [Compound 48, (6aS,6bR,7S,8aS,8bS,11aR,12aS,12bS)-6b-Chloro-7-hydroxy-8b-(2-hydroxyacetyl)-6a,8a-dimethyl-10-(6-(((2-oxotetrahydrofuran-3-yl)thio)methyl)pyridin-3-yl)-1,2,6a,6b,7,8,8a,8b,11a,12,12a,12 b-dodecahydro-4H-naphtho[2',1':4,5]indeno[1,2-d][1,3]dioxol-4-one], the plasma instability entry in series [1] is “exhibited the characteristic of plasma instability”. Besides, the PASI scores result in the series on psoriasis model mice is “significantly decreased PASI scores on day 7”. The “inflammatory response on the ocular surface / ocular symptoms” value in series [2] was “significantly alleviated the ocular symptoms in dry eye syndrome model New Zealand rabbits”. The “Effects on inflammatory cytokines in bronchoalveolar lavage fluid of mice” value in series [3] was “pharmacological effects similar to those of compound 23”. Also, the “Effects on airway hyperresponsiveness (Penh values) in mice” value in the series with asthma model mice is “significantly decreased the Penh values in mice”. The “inflammatory cytokines in aqueous humor” value in series [4] is “suppressed inflammatory cytokines in aqueous humor”. For the same compound, the target selectivity result in series [5] (MR/GR and PR/GR, same experimental conditions) is “target selectivity comparable to that of compound 23”. The “level of IL-17 / inflammatory cytokines in psoriasis model mice” value in the series with IL-17 was “significantly inhibited inflammatory cytokines in the skin of psoriasis model mice”.

As a reminder, the EC50 is the midpoint of the concentration-response curve. Higher therefore signals lower potency in that assay.

The values above are taken from patent publication EP4635969A1, “NOVEL GLUCOCORTICOID, METHOD FOR PREPARING SAME, AND USE THEREOF” (Tianjin Pharmaceutical Biotechnology Co., Ltd., priority 2022, dated 2024).
